This assay deals with USP7 (Homo sapiens, UniProt Q93009). Description: biochemical. Particulars: read-out: % Inhibition at 50 μM. Also noted: Ub-AMC hydrolysis by recombinant USP7 (20 nM), 30 min pre-incubation, fluorescence read-out.

Structures are written as SMILES. Structures can show the parent of a compound that is named as a salt. Some results are limits rather than exact numbers.

Sequence of USP7 (Q93009 whole entry): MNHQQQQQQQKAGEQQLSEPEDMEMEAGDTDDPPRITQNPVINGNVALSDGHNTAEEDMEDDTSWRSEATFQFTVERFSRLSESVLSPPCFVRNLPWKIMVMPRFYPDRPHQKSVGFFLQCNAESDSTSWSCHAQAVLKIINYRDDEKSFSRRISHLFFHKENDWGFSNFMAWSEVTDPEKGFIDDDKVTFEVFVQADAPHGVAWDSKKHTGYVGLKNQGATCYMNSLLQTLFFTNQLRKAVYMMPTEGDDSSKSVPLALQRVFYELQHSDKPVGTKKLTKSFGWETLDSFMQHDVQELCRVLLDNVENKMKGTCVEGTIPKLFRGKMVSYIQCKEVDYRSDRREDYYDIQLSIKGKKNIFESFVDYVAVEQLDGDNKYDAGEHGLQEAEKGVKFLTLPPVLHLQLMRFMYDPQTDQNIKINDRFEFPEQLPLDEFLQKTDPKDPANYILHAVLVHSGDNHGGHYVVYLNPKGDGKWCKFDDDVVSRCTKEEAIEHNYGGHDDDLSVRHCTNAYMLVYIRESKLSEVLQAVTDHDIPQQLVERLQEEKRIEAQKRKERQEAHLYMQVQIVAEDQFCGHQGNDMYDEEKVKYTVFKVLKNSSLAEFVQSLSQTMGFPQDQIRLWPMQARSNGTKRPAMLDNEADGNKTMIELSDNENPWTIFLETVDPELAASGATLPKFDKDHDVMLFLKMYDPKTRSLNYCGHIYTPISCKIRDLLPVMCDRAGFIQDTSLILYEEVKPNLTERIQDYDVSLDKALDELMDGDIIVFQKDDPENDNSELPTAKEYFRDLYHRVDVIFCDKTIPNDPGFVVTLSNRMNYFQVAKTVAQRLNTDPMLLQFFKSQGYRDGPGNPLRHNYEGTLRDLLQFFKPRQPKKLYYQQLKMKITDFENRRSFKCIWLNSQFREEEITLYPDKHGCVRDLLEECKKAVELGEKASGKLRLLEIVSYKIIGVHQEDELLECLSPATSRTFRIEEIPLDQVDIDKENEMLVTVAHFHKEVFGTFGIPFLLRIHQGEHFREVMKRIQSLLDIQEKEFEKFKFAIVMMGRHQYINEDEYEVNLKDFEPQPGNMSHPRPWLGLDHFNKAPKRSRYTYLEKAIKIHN

The term inhibition denotes the drop in the measured response relative to a control, in per cent. In the case of `CCC(C)n1ncn(-c2ccc(N3CCN(c4ccc(OC[C@H]5CO[C@](Cn6cncn6)(c6ccc(Cl)cc6Cl)O5)cc4)CC3)cc2)c1=O` (mixture of isomers) [Itraconazole], the inhibition at 50 µM was less than 5%. Then `CCCCC(C)(O)C/C=C/[C@H]1[C@H](O)CC(=O)[C@@H]1CCCCCCC(=O)OC` (mixture of isomers) [Misoprostol], with less than 5%; and `CC(C)NCC(O)c1ccc(O)c(O)c1` (racemic) [Isoproterenol HCl (rac)], with less than 5%; and `N[C@@H]1C[C@H]1c1ccccc1` (racemic) [Tranylcypromine], with less than 5%. Regarding `Nc1ccn([C@H]2CC[C@@H](CO)O2)c(=O)n1` [2',3' - dideoxycytidine], the inhibition at 50 µM was less than 5%. With `Cc1cn([C@H]2C[C@H](N=[N+]=[N-])[C@@H](CO)O2)c(=O)[nH]c1=O` [3'-azido-3'-deoxythymidine] the figure was less than 5%; with `O=C(O)COC(=O)Cc1ccccc1Nc1c(Cl)cccc1Cl` [Aceclofenac], less than 5%. For `COc1ccc2c(c1)c(CC(=O)OCC(=O)O)c(C)n2C(=O)c1ccc(Cl)cc1` [Acemetacin], the inhibition at 50 µM worked out at 19.8%. Then `CC(=O)OCC[N+](C)(C)C` [Acetylcholine Cl], with less than 5%; and `CC(=O)Oc1ccccc1C(=O)O` [Acetylsalicylic acid], with less than 5%; and `Cc1cnc(C(=O)O)c[n+]1[O-]` [Acipimox], with less than 5%. Consider `Nc1nc2c(ncn2COCCO)c(=O)[nH]1` [Acycloguanosine], for which the inhibition at 50 µM is less than 5%. Then `NCCCC(O)(P(=O)(O)O)P(=O)(O)O` [Alendronate], with less than 5%; and `Oc1ncnc2[nH]ncc12` [Allopurinol], with less than 5%. As for `C=CCc1ccccc1OCC(O)CNC(C)C` (stereo not drawn) [Alprenolol HCl], the inhibition at 50 µM was less than 5%. With `CCCCC[C@H](O)/C=C/[C@H]1[C@H](O)CC(=O)[C@@H]1CCCCCCC(=O)O` [Alprostadil] the figure was less than 5%. With `NC12CC3CC(CC(C3)C1)C2` [Amantadine HCl], the inhibition at 50 µM is less than 5%. Turning to `Nc1c(Br)cc(Br)cc1CN[C@H]1CC[C@H](O)CC1` [Ambroxol], the inhibition at 50 µM was less than 5%. Take `CC(NC(C)(C)C)C(=O)c1cccc(Cl)c1` (stereo not drawn) [Amfebutamone]: the inhibition at 50 µM was less than 5%.

With `Cn1c(=O)c2[nH]cnc2n(C)c1=O` [Aminophylline], the inhibition at 50 µM is less than 5%. Then `CCCCc1oc2ccccc2c1C(=O)c1cc(I)c(OCCN(CC)CC)c(I)c1` [Amiodarone], with less than 5%; and `CCN1CCCC1CNC(=O)c1cc(S(=O)(=O)CC)c(N)cc1OC` (stereo not drawn) [Amisulpride], with less than 5%; and `CCC(C)(C)c1ccc(CC(C)CN2C[C@@H](C)O[C@@H](C)C2)cc1` (stereo partly drawn) [Amorolfine], with less than 5%. As for `Clc1ccc2c(c1)C(N1CCNCC1)=Nc1ccccc1O2` [Amoxapine], the inhibition at 50 µM is 16.8%. With `CC(C)CN(C[C@@H](O)[C@H](Cc1ccccc1)NC(=O)O[C@H]1CCOC1)S(=O)(=O)c1ccc(N)cc1` [Amprenavir] the figure was less than 5%; with `Nc1cc(-c2ccncc2)c[nH]c1=O` [Amrinone], less than 5%. Then `O=C1CN2Cc3c(ccc(Cl)c3Cl)N=C2N1` [Anagrelide], with 8.4%; and `COc1ccc(C(=O)N2CCCC2=O)cc1` [Aniracetam], with less than 5%. In the case of `CN1CCc2cccc3c2[C@H]1Cc1ccc(O)c(O)c1-3` [Apomorphine r (-)], the inhibition at 50 µM is less than 5%.

On to `C[C@@H](O[C@H]1OCCN(Cc2n[nH]c(=O)[nH]2)[C@H]1c1ccc(F)cc1)c1cc(C(F)(F)F)cc(C(F)(F)F)c1` [Aprepitant], for which the inhibition at 50 µM was less than 5%.

As to `CC1CNc2c(cccc2S(=O)(=O)N[C@@H](CCCNC(=N)N)C(=O)N2CC[C@@H](C)C[C@@H]2C(=O)O)C1` (stereo partly drawn) [Argatroban], the inhibition at 50 µM was less than 5%. In the case of `O=C1CCc2ccc(OCCCCN3CCN(c4cccc(Cl)c4Cl)CC3)cc2N1` [Aripiprazole], the inhibition at 50 µM is less than 5%. Regarding `C[C@H]1[C@H](OC(=O)CCC(=O)O)O[C@@H]2O[C@@]3(C)CC[C@H]4[C@H](C)CC[C@@H]1[C@@]24OO3` [Artesunate], the inhibition at 50 µM was less than 5%.

With `C[C@H]1[C@H](C)CC[C@]2(C(=O)O)CC[C@]3(C)C(=CC[C@@H]4[C@@]5(C)C[C@@H](O)[C@H](O)[C@@](C)(CO)[C@@H]5CC[C@]43C)[C@H]12` [Asiatic acid], the inhibition at 50 µM was less than 5%. Then `CN1[C@@H]2CC[C@H]1C[C@@H](OC(=O)C(CO)c1ccccc1)C2` (stereo partly drawn) [Atropine sulfate], with less than 5%; and `CC1(C)CC[C@]2(C(=O)O)CC[C@]3(C)C(=CC[C@@H]4[C@@]5(C)C[C@H](O)[C@H](O)[C@@](C)(CO)[C@@H]5CC[C@]43C)[C@@H]2C1` [Bayogenin], with less than 5%. With `CN(C)CCCOc1nn(Cc2ccccc2)c2ccccc12` [Benzydamine] the figure was less than 5%; with `CC(C)COCC(CN(Cc1ccccc1)c1ccccc1)N1CCCC1` (stereo not drawn) [Bepridil], less than 5%.

In the case of `C=C(C)[C@@H]1CC[C@]2(C(=O)O)CC[C@]3(C)[C@H](CC[C@@H]4[C@@]5(C)CC[C@H](O)C(C)(C)[C@@H]5CC[C@]43C)[C@@H]12` [Betulinic acid], the inhibition at 50 µM stood at 25.8%. On to `CC(C)(Oc1ccc(CCNC(=O)c2ccc(Cl)cc2)cc1)C(=O)O` [Bezafibrate], for which the inhibition at 50 µM is less than 5%. Turning to `COc1ccccc1Oc1c(NS(=O)(=O)c2ccc(C(C)(C)C)cc2)nc(-c2ncccn2)nc1OCCO` [Bosentan], the inhibition at 50 µM is less than 5%. With `CC(C)(C)[C@]1(O)CCN2C[C@H]3c4ccccc4CCc4cccc(c43)[C@@H]2C1` [Butaclamol (+)] the figure was less than 5%; with `CN(Cc1ccc(C(C)(C)C)cc1)Cc1cccc2ccccc12` [Butenafine], 24.9%. With `Clc1ccc(CCC(Cn2ccnc2)Sc2c(Cl)cccc2Cl)cc1` (stereo not drawn) [Butoconazole nitrate] the figure was less than 5%; with `CC[C@@]1(O)C(=O)OCc2c1cc1n(c2=O)Cc2cc3ccccc3nc2-1` [Camptothecin], less than 5%. Then `CCOc1nc2cccc(C(=O)O)c2n1Cc1ccc(-c2ccccc2-c2nnn[nH]2)cc1` [Candesartan], with less than 5%; and `CC1=C(/C=C/C(C)=C/C=C/C(C)=C/C=C/C=C(C)/C=C/C=C(C)/C=C/C2=C(C)C(=O)CCC2(C)C)C(C)(C)CCC1=O` [Canthaxanthin], with less than 5%; and `CCCCCOC(=O)Nc1nc(=O)n([C@@H]2O[C@H](C)[C@@H](O)[C@H]2O)cc1F` [Capecitabine], with less than 5%. Take `C[C@H](CS)C(=O)N1CCC[C@H]1C(=O)O` [Captopril]: the inhibition at 50 µM was less than 5%.

For the compound `C[C@@](Cc1ccc(O)c(O)c1)(NN)C(=O)O` [Carbidopa], the inhibition at 50 µM was less than 5%. On to `O=C(O)COCCN1CCN(C(c2ccccc2)c2ccc(Cl)cc2)CC1` (stereo not drawn) [Cetirizine 2HCl], for which the inhibition at 50 µM is less than 5%. Regarding `CN(C)CCCN1c2ccccc2Sc2ccc(Cl)cc21` [Chlorpromazine HCl], the inhibition at 50 µM was less than 5%. As to `CC1(C)C[C@@H]1C(=O)N/C(=C\CCCCSC[C@H](N)C(=O)O)C(=O)O` [Cilastatin], the inhibition at 50 µM is less than 5%. `COCCOC(=O)C1=C(C)NC(C)=C(C(=O)OC/C=C/c2ccccc2)C1c1cccc([N+](=O)[O-])c1` (stereo not drawn) [Cilnidipine]: the inhibition at 50 µM was less than 5%. As for `CN(C(=O)CCCOc1ccc2[nH]c(=O)ccc2c1)C1CCCCC1` [Cilostamide], the inhibition at 50 µM is less than 5%. Then `CC(C)NCC(O)c1ccc(N)c(C#N)c1` (stereo not drawn) [Cimaterol], with less than 5%; and `CN/C(=N\CCSCc1nc[nH]c1C)NC#N` [Cimetidine], with less than 5%; and `CC[C@H]1OC(=O)[C@H](C)[C@@H](O[C@H]2C[C@@](C)(OC)[C@@H](O)[C@H](C)O2)[C@H](C)[C@@H](O[C@@H]2O[C@H](C)C[C@H](N(C)C)[C@H]2O)[C@](C)(OC)C[C@@H](C)C(=O)[C@H](C)[C@@H](O)[C@]1(C)O` [Clarithromycin], with less than 5%.

Take `CC(C)(C)NCC(O)c1cc(Cl)c(N)c(Cl)c1` (stereo not drawn) [Clenbuterol]: the inhibition at 50 µM is less than 5%. Then `CC(C)(C)C(=O)C(Oc1ccc(Cl)cc1)n1ccnc1` (stereo not drawn) [Climbazole], with less than 5%. Take `NC1CCN(c2c(F)cc3c(=O)c(C(=O)O)cn(C4CC4)c3c2Cl)C1` (stereo not drawn) [Clinafloxacin HCl]: the inhibition at 50 µM was less than 5%. As for `CCC[C@@H]1C[C@@H](C(=O)N[C@@H]([C@H]2O[C@H](SC)[C@H](O)[C@@H](O)[C@H]2O)[C@H](C)Cl)N(C)C1` [Clindamycin HCl], the inhibition at 50 µM was less than 5%.

In the case of `CCCCCCCCCCCCCCCC(=O)O[C@@H]1[C@@H](O)[C@@H](O)[C@@H]([C@H](NC(=O)[C@@H]2C[C@@H](CCC)CN2C)[C@H](C)Cl)O[C@@H]1SC` [Clindamycin palmitate], the inhibition at 50 µM is less than 5%.

For `CCC(=O)O[C@]1(C(=O)CCl)[C@@H](C)C[C@H]2[C@@H]3CCC4=CC(=O)C=C[C@]4(C)[C@@]3(F)[C@@H](O)C[C@@]21C` [Clobetasol propionate], the inhibition at 50 µM was found to be 42.3%.

For the compound `O=P(O)(O)C(Cl)(Cl)P(=O)(O)O` [Clodronate disodium], the inhibition at 50 µM is less than 5%. As to `CCN(CC)CCOc1ccc(C(=C(Cl)c2ccccc2)c2ccccc2)cc1` [Clomiphene citrate], the inhibition at 50 µM is less than 5%. Then `C[C@@H]1CCC[C@H](C)N1NC(=O)c1ccc(Cl)c(S(N)(=O)=O)c1` [Clopamide], with less than 5%; and `COC(=O)[C@H](c1ccccc1Cl)N1CCc2sccc2C1` [Clopidogrel sulfate], with less than 5%; and `C[C@H]1[C@H](C)CC[C@]2(C(=O)O)CC[C@]3(C)C(=CC[C@@H]4[C@@]5(C)C[C@@H](O)[C@H](O)C(C)(C)[C@@H]5CC[C@]43C)[C@H]12` [Corosolic acid], with 43.2%.

Source of the values: publication PMC5363571 (Oncotarget, 2016).
